Source: ChEMBL document CHEMBL3856199, “Melanoma-targeted delivery system (part 2): Synthesis, radioiodination and biological evaluation in B16F0 bearing mice” (Eur J Med Chem, 2016)

How the values were obtained:
[1] = Drug uptake in abdomen of C57BL/6J mouse implanted with mouse B16F0 cells at 3.7 MBq, iv measured at 1 hr post injection by scintigraphic imaging analysis; assay type: ADME, organism-based; conditions: in vivo
[2] = Drug uptake in bladder of C57BL/6J mouse implanted with mouse B16F0 cells at 3.7 MBq, iv measured at 1 hr post injection by scintigraphic imaging analysis; assay type: ADME, organism-based, Urinary bladder; conditions: in vivo
[3] = Drug uptake in tumor of C57BL/6J mouse implanted with mouse B16F0 cells at 3.7 MBq, iv measured at 1 hr post injection by gamma counting analysis; assay type: ADME, organism-based, Neoplasm; conditions: in vivo
[4] = Drug uptake in tumor of C57BL/6J mouse implanted with mouse B16F0 cells at 3.7 MBq, iv measured at 3 hrs post injection by gamma counting analysis; assay type: ADME, organism-based, Neoplasm; conditions: in vivo
[5] = Drug uptake in tumor of C57BL/6J mouse implanted with mouse B16F0 cells at 3.7 MBq, iv measured at 24 hrs post injection by gamma counting analysis; assay type: ADME, organism-based, Neoplasm; conditions: in vivo
[6] = Drug uptake in tumor of C57BL/6J mouse implanted with mouse B16F0 cells at 3.7 MBq, iv measured at 72 hrs post injection by gamma counting analysis; assay type: ADME, organism-based, Neoplasm; conditions: in vivo
[7] = Drug uptake in liver of C57BL/6J mouse implanted with mouse B16F0 cells at 3.7 MBq, iv measured at 6 hrs post injection by gamma counting analysis; assay type: ADME, organism-based; conditions: in vivo
[8] = Drug uptake in liver of C57BL/6J mouse implanted with mouse B16F0 cells at 3.7 MBq, iv measured at 72 hrs post injection by gamma counting analysis; assay type: ADME, organism-based; conditions: in vivo
[9] = Drug uptake in kidney of C57BL/6J mouse implanted with mouse B16F0 cells at 3.7 MBq, iv measured at 1 hr post injection by gamma counting analysis; assay type: ADME, organism-based; conditions: in vivo
[10] = Drug uptake in kidney of C57BL/6J mouse implanted with mouse B16F0 cells at 3.7 MBq, iv measured at 6 hrs post injection by gamma counting analysis; assay type: ADME, organism-based; conditions: in vivo
[11] = Drug uptake in kidney of C57BL/6J mouse implanted with mouse B16F0 cells at 3.7 MBq, iv measured at 72 hrs post injection by gamma counting analysis; assay type: ADME, organism-based; conditions: in vivo
[12] = Drug uptake in stomach of C57BL/6J mouse implanted with mouse B16F0 cells at 3.7 MBq, iv measured at 3 hrs post injection by gamma counting analysis; assay type: ADME, organism-based; conditions: in vivo
[13] = Drug uptake in stomach of C57BL/6J mouse implanted with mouse B16F0 cells at 3.7 MBq, iv measured at 6 hrs post injection by gamma counting analysis; assay type: ADME, organism-based; conditions: in vivo
[14] = Drug uptake in stomach of C57BL/6J mouse implanted with mouse B16F0 cells at 3.7 MBq, iv measured at 24 hrs post injection by gamma counting analysis; assay type: ADME, organism-based; conditions: in vivo
[15] = Drug uptake in intestine of C57BL/6J mouse implanted with mouse B16F0 cells at 3.7 MBq, iv measured at 1 hr post injection by gamma counting analysis; assay type: ADME, organism-based; conditions: in vivo
[16] = Drug uptake in intestine of C57BL/6J mouse implanted with mouse B16F0 cells at 3.7 MBq, iv measured at 3 hrs post injection by gamma counting analysis; assay type: ADME, organism-based; conditions: in vivo
[17] = Drug uptake in intestine of C57BL/6J mouse implanted with mouse B16F0 cells at 3.7 MBq, iv measured at 6 hrs post injection by gamma counting analysis; assay type: ADME, organism-based; conditions: in vivo
[18] = Drug uptake in intestine of C57BL/6J mouse implanted with mouse B16F0 cells at 3.7 MBq, iv measured at 24 hrs post injection by gamma counting analysis; assay type: ADME, organism-based; conditions: in vivo
[19] = Drug uptake in thyroid/submaxillary glands of C57BL/6J mouse implanted with mouse B16F0 cells at 3.7 MBq, iv measured at 1 hr post injection by gamma counting analysis; assay type: ADME, organism-based, Submaxillary gland/Thyroid; conditions: in vivo
[20] = Drug uptake in thyroid/submaxillary glands of C57BL/6J mouse implanted with mouse B16F0 cells at 3.7 MBq, iv measured at 3 hrs post injection by gamma counting analysis; assay type: ADME, organism-based, Submaxillary gland/Thyroid; conditions: in vivo
[21] = Drug uptake in thyroid/submaxillary glands of C57BL/6J mouse implanted with mouse B16F0 cells at 3.7 MBq, iv measured at 24 hrs post injection by gamma counting analysis; assay type: ADME, organism-based, Submaxillary gland/Thyroid; conditions: in vivo
[22] = Drug uptake in thyroid/submaxillary glands of C57BL/6J mouse implanted with mouse B16F0 cells at 3.7 MBq, iv measured at 72 hrs post injection by gamma counting analysis; assay type: ADME, organism-based, Submaxillary gland/Thyroid; conditions: in vivo
[23] = Drug uptake in eyes of C57BL/6J mouse implanted with mouse B16F0 cells at 3.7 MBq, iv measured at 1 hr post injection by gamma counting analysis; assay type: ADME, organism-based, Eye; conditions: in vivo
[24] = Drug uptake in eyes of C57BL/6J mouse implanted with mouse B16F0 cells at 3.7 MBq, iv measured at 3 hrs post injection by gamma counting analysis; assay type: ADME, organism-based, Eye; conditions: in vivo
[25] = Drug uptake in eyes of C57BL/6J mouse implanted with mouse B16F0 cells at 3.7 MBq, iv measured at 6 hrs post injection by gamma counting analysis; assay type: ADME, organism-based, Eye; conditions: in vivo
[26] = Drug uptake in eyes of C57BL/6J mouse implanted with mouse B16F0 cells at 3.7 MBq, iv measured at 72 hrs post injection by gamma counting analysis; assay type: ADME, organism-based, Eye; conditions: in vivo
[27] = Drug uptake in blood of C57BL/6J mouse implanted with mouse B16F0 cells at 3.7 MBq, iv measured at 6 hrs post injection by gamma counting analysis; assay type: ADME, organism-based; conditions: in vivo
[28] = Drug uptake in blood of C57BL/6J mouse implanted with mouse B16F0 cells at 3.7 MBq, iv measured at 24 hrs post injection by gamma counting analysis; assay type: ADME, organism-based; conditions: in vivo
[29] = Drug uptake in blood of C57BL/6J mouse implanted with mouse B16F0 cells at 3.7 MBq, iv measured at 72 hrs post injection by gamma counting analysis; assay type: ADME, organism-based; conditions: in vivo
[30] = Drug uptake in muscles of C57BL/6J mouse implanted with mouse B16F0 cells at 3.7 MBq, iv measured at 3 hrs post injection by gamma counting analysis; assay type: ADME, organism-based, Muscle tissue; conditions: in vivo
[31] = Drug uptake in muscles of C57BL/6J mouse implanted with mouse B16F0 cells at 3.7 MBq, iv measured at 6 hrs post injection by gamma counting analysis; assay type: ADME, organism-based, Muscle tissue; conditions: in vivo
[32] = Drug uptake in muscles of C57BL/6J mouse implanted with mouse B16F0 cells at 3.7 MBq, iv measured at 24 hrs post injection by gamma counting analysis; assay type: ADME, organism-based, Muscle tissue; conditions: in vivo
[33] = Drug uptake in muscles of C57BL/6J mouse implanted with mouse B16F0 cells at 3.7 MBq, iv measured at 72 hrs post injection by gamma counting analysis; assay type: ADME, organism-based, Muscle tissue; conditions: in vivo
[34] = system: Mus musculus; assay: Toxicity in C57BL/6J mouse assessed as lethargy at 3.7 MBq, iv measured up to 72 hrs post injection; assay type: organism-based; conditions: in vivo
[35] = Ratio of drug uptake in tumor to blood in C57BL/6J mouse implanted with mouse B16F0 cells at 3.7 MBq, iv measured at 1 hr post injection; assay type: ADME, organism-based
[36] = Ratio of drug uptake in tumor to muscle in C57BL/6J mouse implanted with mouse B16F0 cells at 3.7 MBq, iv measured at 1 hr post injection; assay type: ADME, organism-based; conditions: in vivo
[37] = Ratio of drug uptake in tumor to muscle in C57BL/6J mouse implanted with mouse B16F0 cells at 3.7 MBq, iv measured at 6 hrs post injection; assay type: ADME, organism-based; conditions: in vivo
[38] = Ratio of drug uptake in tumor to muscle in C57BL/6J mouse implanted with mouse B16F0 cells at 3.7 MBq, iv measured at 72 hrs post injection; assay type: ADME, organism-based; conditions: in vivo

SMILES	Drug uptake [1]	Drug uptake [2]	Drug uptake [3] [% ID/g]	Drug uptake [4] [% ID/g]	Drug uptake [5] [% ID/g]	Drug uptake [6] [% ID/g]	Drug uptake [7] [% ID/g]	Drug uptake [8] [% ID/g]	Drug uptake [9] [% ID/g]	Drug uptake [10] [% ID/g]	Drug uptake [11] [% ID/g]	Drug uptake [12] [% ID/g]	Drug uptake [13] [% ID/g]	Drug uptake [14] [% ID/g]	Drug uptake [15] [% ID/g]	Drug uptake [16] [% ID/g]	Drug uptake [17] [% ID/g]	Drug uptake [18] [% ID/g]	Drug uptake [19] [% ID/g]	Drug uptake [20] [% ID/g]	also measured
CCN(CC)CCNC(=O)c1cnc2cc(NC(=O)COc3ccc(SSCCOC(=O)O[C@H]4C[C@H](n5cc([125I])c(=O)[nH]c5=O)O[C@@H]4CO)cc3)ccc2n1	Active	Active	2.23	2.75	0.72	0.37	0.47	0.11	1.99	0.87	0.32	27.07	6.67	1.01	2.51	2.88	1.24	0.4	11.05	20.47	Drug uptake [21]: 19.5 % ID/g; Drug uptake [22]: 11.36 % ID/g; Drug uptake [23]: 0.78 % ID/g; Drug uptake [24]: 0.85 % ID/g; Drug uptake [25]: 0.28 % ID/g; Drug uptake [26]: 0.08 % ID/g; Drug uptake [27]: 1 % ID/g; Drug uptake [28]: 0.13 % ID/g; Drug uptake [29]: 1.94 % ID/g; Drug uptake [30]: 0.51 % ID/g; Drug uptake [31]: 0.19 % ID/g; Drug uptake [32]: 0.04 % ID/g; Drug uptake [33]: 0.06 % ID/g; Activity [34]: Non-Toxic; Kp at 1 h [35]: 1.11; Ratio [36]: 4.84; Ratio [37]: 12.3; Ratio [38]: 5.28
O=c1[nH]c(=O)n([C@H]2C[C@H](O)[C@@H](CO)O2)cc1[125I]	Active	Active	2.79	1.66	0.46	0.33	0.24	0.04	2.57	0.38	0.08	12.33	4.19	0.62	1.62	1.27	0.77	0.34	13.63	14.55	Drug uptake [21]: 22.45 % ID/g; Drug uptake [22]: 4.17 % ID/g; Drug uptake [23]: 1.02 % ID/g; Drug uptake [24]: 0.43 % ID/g; Drug uptake [25]: 0.24 % ID/g; Drug uptake [26]: 0.03 % ID/g; Drug uptake [27]: 0.52 % ID/g; Drug uptake [28]: 0.07 % ID/g; Drug uptake [29]: 0.02 % ID/g; Drug uptake [30]: 1.06 % ID/g; Drug uptake [31]: 0.11 % ID/g; Drug uptake [32]: 0.02 % ID/g; Drug uptake [33]: 0.03 % ID/g; Activity [34]: Non-Toxic; Kp at 1 h [35]: 0.89; Ratio [36]: 2.96; Ratio [37]: 10.66; Ratio [38]: 14.58
